US20250127863A1, “ANTIMICROBIAL PEPTIDE FOR ONYCHOMYCOSIS” (CBMR SCIENTIFIC NANOSCIENCE B.V., priority 2019, published 2025)
No end group written: not given here.

Key:
[1] = test system: onychomycosis; assay: Clinical study for treating onychomycosis (Example 2); type: in vivo, human; conditions: twice per day
Description: A peptide solution was tested for its treatment effect on onychomycosis in human subjects. The peptide was antimicrobial peptide hLF1-11 (GRRRRSVQWCA) [SEQ ID NO: 3] in water comprising 0.01% by volume acetic acid, based on the total volume of the peptide solution.
Forty two patients are treated with the peptide solution; 20 patients (4 male/16 female) were treated with a solution comprising a low concentration of 3 mg/L of the peptide (dose twice per day), 10 patients (3 male/7 female) were treated with the peptide solution with a high concentration of 30 mg/L of the peptide (dose twice per day) and 12 patients (8 male/4 female) with a combination of high and low concentration (4 weeks 30 mg/L following by 3 mg/L continuing treatment, dose twice per day).
Patients were categorized into groups based on their skin and nail disorders (visible inspection by independent pedicure); low to mild fungal nail problems (treatment group with 3 mg/L for patients in this group), mild to severe fungal nail problems (combination group 30 mg/L-3 mg/L) and highly infected onychomycosis (30 mg/L group).
Results: 90% of the patients observed an improvement in the appearance of the nail after 2 weeks, 92% observed improvement after 4-10 weeks of treatment. Complete recovery was visible for >98% of the patients after 24 weeks. No exclusions were made. Some patients with severe infections (diabetic/autoimmune related) in the high/low combination treatment group were treated longer with the peptide at high dose. All patients continued the treatment as long as it takes to recover completely from the fungal nail infection (in general, relating to the outgrowth of a complete new nail). Duration of the trial was 6-12 months (depending on the infection and the outgrowth of the nail).

[2] = test system: C. guilliermondii CBS-2030; assay: MIC90 growth inhibition; type: cell-based, Candida guilliermondii; conditions: RPMI 1640 one-fourth strength
Description: (§1) The minimum inhibitory concentration (MIC) value is defined as the lowest sample concentration that inhibited growth. In the Examples, the MIC90 value is presented, which MIC90 values are determined according to established methods known to the person with the skills in the relevant art. Experiments; 1×10E5 CFU of various strains/ml were incubated for 24-48 h at 37° C. in 4× diluted medium of RPMI 1640 with the indicated concentrations of antimicrobial peptide hLF(1-11) [SEQ ID NO: 3]. As controls various strains cells were incubated for 24-48 h at 37° C. with no agent (antimicrobial peptide), and subsequently, growth of the microbial organism (e.g. yeast, bacterium) was monitored by using spectrophotometry with a spectrophotometer at 620 nm. […] ND=Not done. Representative single assay data are listed rather than a range, for clarity reasons and for ease of comparison of peptide efficacy. The MIC was calculated as the lowest antibiotic (antimicrobial peptide) concentration at which growth of the assessed yeast or bacterium (microbe) was inhibited (inhibitory concentration IC90).

[3] = test system: C. guilliermondii; assay: MIC90 growth inhibition; type: cell-based, Candida guilliermondii; conditions: RPMI 1640 one-fourth strength
Description: as §1

[4] = test system: C. haemulonii; assay: MIC90 growth inhibition; type: cell-based, Candida haemulonii; conditions: RPMI 1640 one-fourth strength
Description: as §1

[5] = test system: C. kefyr; assay: MIC90 growth inhibition; type: cell-based, Candida kefyr; conditions: RPMI 1640 one-fourth strength
Description: as §1

[6] = test system: C. lusitaniae CMC-1944; assay: MIC90 growth inhibition; type: cell-based, Candida lusitaniae; conditions: RPMI 1640 one-fourth strength
Description: as §1

[7] = test system: Altematria spp.; assay: MIC90 growth inhibition; type: cell-based; conditions: RPMI 1640 one-fourth strength
Description: as §1

[8] = test system: Aspergillus fumigatus; assay: MIC90 growth inhibition; type: cell-based; conditions: RPMI 1640 one-fourth strength
Description: as §1

[9] = test system: Aspergillus nidulans; assay: MIC90 growth inhibition; type: cell-based; conditions: RPMI 1640 one-fourth strength
Description: as §1

[10] = test system: Aspergillus niger; assay: MIC90 growth inhibition; type: cell-based; conditions: RPMI 1640 one-fourth strength
Description: as §1

[11] = test system: Aspergillus ungius; assay: MIC90 growth inhibition; type: cell-based; conditions: RPMI 1640 one-fourth strength
Description: as §1

[12] = test system: Candida spp.; assay: MIC90 growth inhibition; type: cell-based; conditions: RPMI 1640 one-fourth strength
Description: as §1

[13] = test system: Cryptococcus uniguttulatus; assay: MIC90 growth inhibition; type: cell-based; conditions: RPMI 1640 one-fourth strength
Description: as §1

[14] = test system: Entrobacter cloacae; assay: MIC90 growth inhibition; type: cell-based; conditions: RPMI 1640 one-fourth strength
Description: as §1

[15] = test system: Malassezia pachydermatis CBS 1880; assay: MIC90 growth inhibition; type: cell-based; conditions: RPMI 1640 one-fourth strength
Description: as §1

[16] = test system: Malassezia pachydermatis CBS 1883; assay: MIC90 growth inhibition; type: cell-based; conditions: RPMI 1640 one-fourth strength
Description: as §1

[17] = test system: Malassezia restricta CBS 7877; assay: MIC90 growth inhibition; type: cell-based; conditions: RPMI 1640 one-fourth strength
Description: as §1

[18] = test system: Mucor spp; assay: MIC90 growth inhibition; type: cell-based; conditions: RPMI 1640 one-fourth strength
Description: as §1

[19] = test system: Mycobacterium avium; assay: MIC90 growth inhibition; type: cell-based; conditions: RPMI 1640 one-fourth strength
Description: as §1

[20] = test system: Penicillium expansum; assay: MIC90 growth inhibition; type: cell-based; conditions: RPMI 1640 one-fourth strength
Description: as §1

[21] = test system: Phialophora verrucosa; assay: MIC90 growth inhibition; type: cell-based; conditions: RPMI 1640 one-fourth strength
Description: as §1

[22] = test system: Pichia membramfaciens; assay: MIC90 growth inhibition; type: cell-based; conditions: RPMI 1640 one-fourth strength
Description: as §1

[23] = test system: Proteus spp; assay: MIC90 growth inhibition; type: cell-based; conditions: RPMI 1640 one-fourth strength
Description: as §1

[24] = test system: Saccharomyces cerivisiae ATCC 2602; assay: MIC90 growth inhibition; type: cell-based; conditions: RPMI 1640 one-fourth strength
Description: as §1

[25] = test system: Staphylococcus epidermidis; assay: MIC90 growth inhibition; type: cell-based; conditions: RPMI 1640 one-fourth strength
Description: as §1

[26] = test system: Streptococcus caseii; assay: MIC90 growth inhibition; type: cell-based; conditions: RPMI 1640 one-fourth strength
Description: as §1

[27] = test system: Streptococcus lactis; assay: MIC90 growth inhibition; type: cell-based; conditions: RPMI 1640 one-fourth strength
Description: as §1

[28] = test system: Streptocococcus mitis 033; assay: MIC90 growth inhibition; type: cell-based; conditions: RPMI 1640 one-fourth strength
Description: as §1

[29] = test system: Trichosporon beigelii; assay: MIC90 growth inhibition; type: cell-based; conditions: RPMI 1640 one-fourth strength
Description: as §1

[30] = test system: Zygosaccharomyces bailii; assay: MIC90 growth inhibition; type: cell-based; conditions: RPMI 1640 one-fourth strength
Description: as §1

[31] = test system: Phoma exigua; assay: IC50 growth inhibition; type: cell-based
[32] = test system: Sclerotinia sclerotiorum; assay: IC50 growth inhibition; type: cell-based

Sequence: GRRRRSVQWCA [hLF1-11, Gly Arg Arg Arg Arg Ser Val Gln Trp Cys Ala]
- patients who observed an improvement in the appearance of the nail ([1]; after 2 weeks, 3 mg/L, 30 mg/L or combination, 42 patients): 90%
- patients who observed improvement ([1]; after 4-10 weeks of treatment): 92%
- patients with complete recovery visible ([1]; after 24 weeks): > 98%
- Inhibitory concentration MIC (MIC90) [2]: MIC = 50 μg/ml
- Inhibitory concentration MIC (MIC90) [3]: MIC = 5-40 μg/ml
- Inhibitory concentration MIC (MIC90) [4]: MIC = 25 μg/mL
- Inhibitory concentration MIC (MIC90) [5]: MIC = 2.5-12.5 μg/ml
- Inhibitory concentration MIC (MIC90) [6]: MIC = 50 μg/mL
- Inhibitory concentration MIC (MIC90) [7]: MIC = 16 μM
- Inhibitory concentration MIC (MIC90) [8]: MIC = 2.5-25 μg/ml
- Inhibitory concentration MIC (MIC90) [9]: MIC = 2.5-12.5 μg/ml
- Inhibitory concentration MIC (MIC90) [10]: MIC = 50 μg/mL
- Inhibitory concentration MIC (MIC90) [11]: MIC = 3.1-25 μg/ml
- Inhibitory concentration MIC (MIC90) [12]: MIC = 12.5-50 μg/ml
- Inhibitory concentration MIC (MIC90) [13]: MIC = 6 μg/ml
- Inhibitory concentration MIC (MIC90) [14]: MIC = 6.3 μg/ml
- Inhibitory concentration MIC (MIC90) [15]: MIC = 25-50 μg/mL
- Inhibitory concentration MIC (MIC90) [16]: MIC = 25-50 μg/mL
- Inhibitory concentration MIC (MIC90) [17]: MIC = 50 μg/mL
- Inhibitory concentration MIC (MIC90) [18]: MIC = 25-50 μg/mL
- Inhibitory concentration MIC (MIC90) [19]: MIC = 50 μg/ml
- Inhibitory concentration MIC (MIC90) [20]: MIC = 16 μM
- Inhibitory concentration MIC (MIC90) [21]: MIC = 5-10 μg/ml
- Inhibitory concentration MIC (MIC90) [22]: MIC = 45 μg/ml
- Inhibitory concentration MIC (MIC90) [23]: MIC = 6.3 μg/ml
- Inhibitory concentration MIC (MIC90) [24]: MIC = 25 μg/ml
- Inhibitory concentration MIC (MIC90) [25]: MIC = 3.1 μg/ml
- Inhibitory concentration MIC (MIC90) [26]: MIC = 3.1 μg/ml
- Inhibitory concentration MIC (MIC90) [27]: MIC = 3.1 μg/ml
- Inhibitory concentration MIC (MIC90) [28]: MIC = 6.3 μg/ml
- Inhibitory concentration MIC (MIC90) [29]: MIC = 40 μg/ml
- Inhibitory concentration MIC (MIC90) [30]: MIC = 8 μM
- Inhibitory concentration IC50 [31]: IC50 = 821 μg/mL
- Inhibitory concentration IC50 [32]: IC50 = 31 μg/mL
